Assay results published in ChEMBL document CHEMBL3045184, “3D-QSAR studies of natural flavonoid compounds as reverse transcriptase inhibitors” (Med Chem Res, 2012).

Target: T1, Avian myoblastosis virus polyprotein II (Avian myeloblastosis virus) (UniProt Q86831)
T1 sequence (whole entry): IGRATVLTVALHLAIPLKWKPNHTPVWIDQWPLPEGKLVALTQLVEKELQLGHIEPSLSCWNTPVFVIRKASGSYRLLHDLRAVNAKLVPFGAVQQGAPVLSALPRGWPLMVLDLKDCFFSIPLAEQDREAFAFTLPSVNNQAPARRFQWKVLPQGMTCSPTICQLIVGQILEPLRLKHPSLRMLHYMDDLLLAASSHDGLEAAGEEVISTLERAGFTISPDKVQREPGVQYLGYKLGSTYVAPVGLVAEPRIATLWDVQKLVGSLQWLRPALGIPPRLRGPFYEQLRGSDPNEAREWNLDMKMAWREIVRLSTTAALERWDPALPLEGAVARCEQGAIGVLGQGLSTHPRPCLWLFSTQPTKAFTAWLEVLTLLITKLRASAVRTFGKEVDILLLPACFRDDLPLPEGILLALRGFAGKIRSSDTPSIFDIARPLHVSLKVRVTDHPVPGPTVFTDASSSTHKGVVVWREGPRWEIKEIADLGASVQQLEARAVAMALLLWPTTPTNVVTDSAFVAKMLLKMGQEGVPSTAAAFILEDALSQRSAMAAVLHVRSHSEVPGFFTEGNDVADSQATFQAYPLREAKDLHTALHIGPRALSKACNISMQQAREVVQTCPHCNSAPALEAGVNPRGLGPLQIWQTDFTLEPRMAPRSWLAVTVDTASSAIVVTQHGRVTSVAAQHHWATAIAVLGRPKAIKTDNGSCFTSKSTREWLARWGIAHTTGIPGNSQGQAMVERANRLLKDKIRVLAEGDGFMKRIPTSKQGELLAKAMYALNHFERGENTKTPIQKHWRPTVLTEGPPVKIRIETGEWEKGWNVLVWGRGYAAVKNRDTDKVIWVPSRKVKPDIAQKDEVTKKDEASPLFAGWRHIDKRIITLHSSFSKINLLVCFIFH
Assay: Inhibition of Avian myeloblastosis virus reverse transcriptase
Design: concentration or dose not given beside the values
Details: concentration not given here

| SMILES | inhibition [%] |
| --- | --- |
| CC(C)Oc1ccc(-c2cc(=O)c3c(O)cc(OC(C)C)cc3o2)cc1 | 23.6 |
| COc1cc2oc(-c3ccccc3)cc(=O)c2c(O)c1OC | 45.9 |
| COc1ccc(-c2cc(=O)c3c(O)cc(OC)cc3o2)cc1 | 54.8 |
| COc1cccc(O)c1-c1cc(=O)c2c(O)c(OC)c(OC)c(OC)c2o1 | 18 |
| COc1cc2oc(-c3ccccc3)cc(=O)c2c(OC)c1OC | 29.8 |
| O=c1c(O)c(-c2ccc(O)cc2)oc2cc(O)cc(O)c12 | 72.6 |
| O=c1c(O)c(-c2cc(O)c(O)c(O)c2)oc2cc(O)ccc12 | 87.5 |
| COc1cc2oc(-c3ccc(O)c(O)c3)cc(=O)c2c(O)c1O | 91.4 |
| O=c1c(O)c(-c2cc(O)c(O)c(O)c2)oc2cc(O)cc(O)c12 | 82.5 |
| CC(C)Oc1ccc(-c2cc(=O)c3c(O)cc(O)cc3o2)cc1OC(C)C | 12.2 |
| COc1cc(O)c2c(=O)c(OC)c(-c3ccc(OC)c(OC)c3)oc2c1 | 9.2 |
| COc1cccc(OC)c1-c1cc(=O)c2c(O)c(OC)c(OC)c(OC)c2o1 | 5.4 |
| COc1ccc(-c2oc3cc(O)cc(O)c3c(=O)c2O)cc1 | 64.6 |
| COc1cc(O)c2c(=O)cc(-c3ccccc3OC(C)=O)oc2c1OC | 17 |
| O=c1c(O)c(-c2ccccc2O)oc2cc(O)cc(O)c12 | 28 |
| COc1c(O)cc2oc(-c3ccc(O)cc3)cc(=O)c2c1O | 23.3 |
| O=c1c(O)c(-c2ccc(O)c(O)c2)oc2cc(O)c(O)c(O)c12 | 98.4 |
| O=c1c(O)c(-c2c(O)cccc2O)oc2cc(O)cc(O)c12 | 21.3 |
| COc1ccc(-c2cc(=O)c3c(OC)cc(OC)cc3o2)cc1 | 45.6 |
| O=c1cc(-c2ccc(O)cc2)oc2c(O)c(O)cc(O)c12 | 22 |
| CC(C)Oc1ccc(-c2cc(=O)c3c(O)cc(O)c(O)c3o2)cc1OC(C)C | 17.6 |
| COc1c(OC(C)C)cc(O)c2c(=O)cc(-c3ccc(O)cc3)oc12 | 15.4 |
| O=c1cc(-c2ccc(O)c(O)c2)oc2c(O)c(O)cc(O)c12 | 31.3 |
| O=c1cc(-c2ccccc2)oc2cc(O)c(O)c(O)c12 | 95 |
| O=c1c(O)c(-c2ccc(O)cc2O)oc2cc(O)cc(O)c12 | 40.5 |
| COc1ccc(-c2cc(=O)c3c(O)cc(O)cc3o2)cc1 | 48 |
| COc1cc(O)c2c(=O)c(O)c(-c3ccc(O)c(O)c3)oc2c1 | 50.8 |
| CC(=O)Oc1ccc(-c2cc(=O)c3c(OC(C)=O)cc(OC(C)=O)cc3o2)cc1 | 24.7 |

| SMILES | inhibition [%] |
| --- | --- |
| CC(C)Oc1ccc(-c2cc(=O)c3c(O)c(O)c(OC(C)C)cc3o2)cc1 | 18 |
| CC(C)Oc1ccc(-c2cc(=O)c3c(O)c(O)c(OC(C)C)c(O)c3o2)cc1 | 46.2 |
| O=c1cc(-c2ccccc2)oc2c(O)c(OCc3ccccc3)cc(O)c12 | 19 |
| COc1cc(O)c2c(=O)cc(-c3ccccc3)oc2c1OC | 9.8 |
| COc1ccc(-c2cc(=O)c3c(O)c(O)c(OC)c(O)c3o2)cc1 | 39.1 |
| O=c1cc(-c2ccc(O)c(O)c2)oc2cc(O)c(O)c(O)c12 | 91.7 |
| O=c1c(O)c(-c2ccc(O)c(O)c2)oc2c(O)c(O)cc(O)c12 | 85.1 |
| COc1cc2oc(-c3ccc(O)cc3)cc(=O)c2c(O)c1OC | 50.9 |
| COc1c(OC(C)=O)cc2oc(-c3ccccc3)cc(=O)c2c1O | 18.3 |
| COc1cc(O)c2c(=O)c(O)c(-c3ccc(OC)c(O)c3)oc2c1 | 68.1 |
| O=c1cc(-c2ccccc2)oc2cc(OCc3ccccc3)cc(O)c12 | 34.9 |
| CC(C)Oc1cc(OC(C)C)c2c(=O)cc(-c3ccccc3)oc2c1 | 24.2 |
| O=c1c(O)c(-c2ccccc2)oc2cc(O)cc(O)c12 | 42.1 |
| COc1ccc(-c2oc3cc(O)cc(O)c3c(=O)c2O)cc1O | 59.7 |
| COc1c(O)cc2oc(-c3ccccc3)cc(=O)c2c1OC | 32.7 |
| O=c1c(O)c(-c2ccc(O)cc2)oc2cc(O)c(O)c(O)c12 | 97.2 |
| COc1c(O)cc(O)c2c(=O)cc(-c3ccccc3O)oc12 | 8.5 |
| COc1ccc(-c2cc(=O)c3ccc(O)cc3o2)cc1 | 13.6 |
| O=c1cc(-c2ccccc2)oc2c(O)c(O)cc(O)c12 | 36.9 |
| O=c1cc(-c2ccccc2O)oc2c(O)c(O)cc(O)c12 | 67.7 |
| CC(=O)Oc1cc2oc(-c3ccccc3)cc(=O)c2c(OC(C)=O)c1OC(C)=O | 71.4 |
| O=c1c(O)c(-c2ccc(O)c(O)c2)oc2cc(O)cc(O)c12 | 41.4 |
| COc1c(O)cc(O)c2c(=O)cc(-c3ccccc3)oc12 | 36.8 |
| COc1cc(-c2oc3cc(O)ccc3c(=O)c2O)ccc1O | 52.7 |
| O=c1cc(-c2ccc(O)cc2)oc2cc(O)c(O)c(O)c12 | 99.4 |
| COc1ccc(-c2cc(=O)c3c(O)cc(OC(C)C)c(OC)c3o2)cc1 | 12 |
| CC(C)Oc1ccc(-c2cc(=O)c3c(O)cc(O)cc3o2)cc1 | 55.4 |
